Read-outs that look alike come from different tables or passages of the source.
Columns and labels:
[1] = tested on: Candida albicans (azole drug-resistant strain) R358; assay: MIC assay (CLSI M27-A3), Candida albicans azole drug-resistant strain R358; format: cell-based; settings: second batch
Method: (§1) After a test compound was serially diluted, an MIC (minimum inhibitory concentration) assay was performed on the standard Candida strain and an MEC (minimum effective concentration) assay on the standard Aspergillus strain. The MIC assay was performed according to the guidelines of the Clinical and Laboratory Standards Institute (CLSI M27-A3) and the MEC assay according to the guidelines of the Clinical and Laboratory Standards Institute (CLSI M38-A2).
(§2) The frozen strain was passaged at least twice, and a single colony was picked and resuspended in normal saline or sterile water in a tube. The suspension was vortexed and adjusted to 0.5 McF (1×10^6 to 5×10^6 CFU/mL) using a spectrophotometer at wavelength 530 nm. The suspension was 50-fold diluted with normal saline and then 20-fold diluted with 1×RPMI 1640 broth (1×10^3 to 5×10^3 CFU/mL). 10 μL of the suspension was applied to an SDA plate for colony counting, with a range from about 10 to 50 single colonies.
(§3) At this time, the bacterium concentration in each well should be 0.5×10^3 to 2.5×10^3 CFU/mL.
(§4) For echinocandin drugs, Aspergillus was incubated at 28° C. for 21-26 h, and then the MEC results were read.
(§5) Yeast-type fungi: A disposable sealing film was applied to the 96-well plate, and the mixture was well mixed by shaking. Observation was performed through a plate reader with the naked eye. Comparisons were made to the growth control, and the minimum compound concentration corresponding to ≥50% growth inhibition was defined as MIC. Pictures were taken and saved using an automatic plate reader.

[2] = Plasma histamine assay after single intravenous injection in SD rats; format: in vivo
Method: (§6) 12 SD rats were divided into 2 groups of 6 (half are male and half female). […] The body weights were measured once before administration. Administration was performed by single intravenous injection for 20 min per animal. PK measurement was performed once before administration and 5 min, 30 min, 1 h, 4 h, 8 h, 24 h, 48 h, 72 h and 96 h after administration. A histamine assay was performed once before administration and 30 min, 4 h, 8 h and 24 h after administration.

[3] = tested on: Candida parapsilosis ATCC 22019; assay: MIC assay (CLSI M27-A3), Candida parapsilosis ATCC 22019; format: cell-based; settings: for MIC, Candida parapsilosis ATCC 22019: first batch, 24 h, 35° C., quality control strain
Method: as §1, §2, §3, §4, §5

[4] = tested on: Meyerozyma guilliermondii ATCC 6260; assay: MIC assay (CLSI M27-A3), Meyerozyma guilliermondii ATCC 6260; format: cell-based; settings: first batch, 24 h, 35° C.
Method: as §1, §2, §3, §4, §5

[5] = tested on: Candida tropicalis (amphotericin-resistant strain) ATCC 200956; assay: microbe, parasite or virus in culture; format: cell-based
Method: as §1, §2, §3, §4, §5

[6] = tested on: Candida tropicalis ATCC 750; assay: MIC assay (CLSI M27-A3), Candida tropicalis ATCC 750; format: cell-based; settings: first batch, 24 h, 35° C.
Method: as §1, §2, §3, §4, §5

[7] = tested on: Candida albicans (azole drug-resistant strain) R357; assay: MIC assay (CLSI M27-A3), Candida albicans azole drug-resistant strain R357; format: cell-based; settings: second batch
Method: as §1, §2, §3, §4, §5

[8] = tested on: Candida albicans ATCC 44858; assay: MIC assay (CLSI M27-A3), Candida albicans ATCC 44858; format: cell-based; settings: second batch
Method: as §1, §2, §3, §4, §5

Candida krusei ATCC 6258 = assay: MIC assay (CLSI M27-A3), Candida krusei ATCC 6258; format: cell-based; settings: for MIC, Candida krusei ATCC 6258: first batch, 24 h, 35° C., quality control strain
Method: as §1, §2, §3, §4, §5

[9] = tested on: Candida albicans ATCC 90028; assay: MIC assay (CLSI M27-A3), Candida albicans ATCC 90028; format: cell-based; settings: second batch; for MIC: Candida albicans, ATCC90028
Method: as §1, §2
At this time, the bacterium concentration in each well should be 0.5×10^3 to 2.5×10^3 CFU/mL. […]
as §5

[10] = Pharmacokinetic study after single intravenous injection in SD rats; format: in vivo; settings: 10 mg/kg single intravenous injection
Method: as §6

[11] = tested on: Candida albicans ATCC 90029; assay: MIC assay (CLSI M27-A3), Candida albicans ATCC 90029; format: cell-based; settings: first batch, 24 h, 35° C., ≥50% growth inhibition
Method: as §1, §2, §3, §4, §5

[12] = tested on: Candida glabrata ATCC 36583; assay: MIC assay (CLSI M27-A3), Candida glabrata ATCC 36583; format: cell-based; settings: second batch
Method: as §1, §2, §3, §4, §5

[13] = tested on: Candida glabrata ATCC 15126; assay: MIC assay (CLSI M27-A3), Candida glabrata ATCC 15126; format: cell-based; settings: first batch; 24 h, 35° C.; ≥50% growth inhibition
Method: as §1, §2, §3, §4, §5

[14] = tested on: Aspergillus flavus ATCC 28539; assay: MEC assay (CLSI M38-A2), Aspergillus flavus ATCC 28539; format: cell-based; settings: first batch; 28° C., 21-26 h
Method: The MIC assay was performed according to the guidelines of the Clinical and Laboratory Standards Institute (CLSI M27-A3) and the MEC assay according to the guidelines of the Clinical and Laboratory Standards Institute (CLSI M38-A2).
Colonies on the plate were covered with about 1 mL of 0.85% normal saline or sterile water (polysorbate 20 was added at a final concentration of 0.1%-0.01%). […] The homogeneous upper layer of the suspension was transferred to a new sterile tube, which was then sealed and vortexed for 15 s (be careful as the suspension may produce an aerosol when the cover is removed). The concentration of the suspension was adjusted until an OD value of 0.09-0.13 was achieved using a spectrophotometer at 530 nm. […] 100 μL of sample was added to each well of the 96-well plate within 2 h after dilution (the final spore concentration in the susceptibility testing plate was at 0.4×10^4 to 5×10^4 CFU/mL).
Aspergillus: For echinocandin drugs, comparisons were made to the growth control under a plate reader, and the minimum drug concentration that could cause the hyphae to form small, round, compact hyphal particles was defined as MEC. For accurate determination of MEC values, the plate must not be vortexed before reading.

[15] = General state observation after single intravenous injection in SD rats; format: in vivo; settings: 10 mg/kg single intravenous injection
Method: as §6

CCCCCOc1ccc(-c2ccc(-c3ccc(C(=O)N[C@H]4C[C@@H](O)[C@@H](OC[C@H]5CCC[N+]5(C)C)NC(=O)[C@@H]5[C@@H](O)[C@@H](C)CN5C(=O)[C@H]([C@@H](C)O)NC(=O)[C@H]([C@H](O)[C@@H](O)c5ccc(O)cc5)NC(=O)[C@@H]5C[C@@H](O)CN5C(=O)[C@H]([C@@H](C)O)NC4=O)cc3)cc2)cc1 [Example 13]
MIC ([1]; Candida albicans, read-out: MIC, Candida albicans (azole drug-resistant strain) R358): 0.25 µg/mL
ability to induce increases in the histamine level in rats ([2]; same dose (10 mg/kg), single intravenous injection, versus rezafungin acetate): significantly lower than that of rezafungin acetate
MIC ([3]; Lodderomyces parapsilosis, ATCC22019, 24 h, read-out: MIC, Candida parapsilosis ATCC 22019): 1 µg/mL
MIC ([4]; Meyerozyma guilliermondii, ATCC6260, read-out: MIC, Meyerozyma guilliermondii ATCC 6260): 1 µg/mL
MIC ([5]; Candida tropicalis, ATCC200956, read-out: MIC, Candida tropicalis (amphotericin-resistant strain) ATCC 200956): 0.25 µg/mL
MIC ([6]; Candida tropicalis, ATCC750, read-out: MIC, Candida tropicalis ATCC 750): 0.016 µg/mL
MIC ([7]; Candida albicans, read-out: MIC, Candida albicans (azole drug-resistant strain) R357): 0.5 µg/mL
MIC ([8]; Candida albicans, ATCC44858, read-out: MIC, Candida albicans ATCC 44858): 0.25 µg/mL
MIC (Candida krusei ATCC 6258; Pichia kudriavzevii, ATCC6258, 24 h, read-out: MIC, Candida krusei ATCC 6258): 0.047 µg/mL
MIC ([9]; 24 h, 35° C., read-out: MIC, Candida albicans ATCC 90028): 0.25 µg/mL
MIC ([9]; + 50% human serum, read-out: MIC, Candida albicans + 50% human serum ATCC 90028): 0.25 µg/mL
MRTIV ([10]; female SD rats): 34.6 h
MRTIV ([10]; male SD rats): 37.1 h
MIC ([11]; Candida albicans, ATCC90029, read-out: MIC, Candida albicans ATCC 90029): 0.031 µg/mL
MIC ([12]; Nakaseomyces glabratus, ATCC36583, read-out: MIC, Candida glabrata ATCC 36583): 0.5 µg/mL

Caspofungin acetate [reference compound]
MIC, Candida parapsilosis ATCC 22019 [3]: 1 µg/mL
MIC, Meyerozyma guilliermondii ATCC 6260 [4]: 1 µg/mL
MIC, Candida tropicalis ATCC 750 [6]: 0.016 µg/mL
MIC, Candida glabrata ATCC 15126 [13]: 0.25 µg/mL
MEC, Aspergillus flavus ATCC 28539 [14]: 0.031 µg/mL
MIC, Candida krusei ATCC 6258 (Candida krusei ATCC 6258): 1 µg/mL
MIC, Candida albicans ATCC 90029 [11]: 0.063 µg/mL

Rezafungin acetate
MIC, Candida albicans (azole drug-resistant strain) R358 [1]: 0.25 µg/mL
general state observation [15]: transient slight decrease in activity
mean plasma histamine concentration relative to group 1 ([2]; SD rats, 10 mg/kg i.v., 30 min after administration, p=0.046): 4.5 times
time at which plasma histamine concentration peaked ([2]; SD rats, 10 mg/kg single intravenous injection): 30 min
mean histamine concentration in the plasma ([2]; SD rats, 10 mg/kg single intravenous injection, 30 min after administration): 1333.0 ng/mL
MIC, Candida parapsilosis ATCC 22019 [3]: 2 µg/mL
MIC, Meyerozyma guilliermondii ATCC 6260 [4]: 2 µg/mL
MIC, Candida tropicalis (amphotericin-resistant strain) ATCC 200956 ([5]; second batch): 0.25 µg/mL
MIC, Candida tropicalis ATCC 750 [6]: 0.016 µg/mL
MIC, Candida glabrata ATCC 15126 [13]: 0.125 µg/mL
MEC, Aspergillus flavus ATCC 28539 [14]: 0.031 µg/mL
MIC, Candida albicans (azole drug-resistant strain) R357 [7]: 0.25 µg/mL
MIC, Candida albicans ATCC 44858 [8]: 0.25 µg/mL
MIC, Candida krusei ATCC 6258 (Candida krusei ATCC 6258): 0.25 µg/mL
MIC, Candida albicans ATCC 90028 ([9]; 24 h, 35° C.): 0.25 µg/mL
MIC, Candida albicans + 50% human serum ATCC 90028 ([9]; + 50% human serum): 0.25 µg/mL
AUC0-96 ([10]; female SD rats): 205.8 µg·h/mL
AUC0-inf ([10]; female SD rats): 227.2 µg·h/mL
CL ([10]; female SD rats): 0.8 mL/min/kg
Cmax ([10]; female SD rats): 8600 ng/mL
MRTIV ([10]; female SD rats): 39.1 h
T1/2 ([10]; female SD rats): 27.9 h
VdSS ([10]; female SD rats): 1.8 L/kg
AUC0-96 ([10]; male SD rats): 190.5 µg·h/mL
AUC0-inf ([10]; male SD rats): 212.1 µg·h/mL
CL ([10]; male SD rats): 0.8 mL/min/kg
Cmax ([10]; male SD rats): 7800 ng/mL
MRTIV ([10]; male SD rats): 38.4 h
T1/2 ([10]; male SD rats): 28.0 h
VdSS ([10]; male SD rats): 1.8 L/kg
MIC, Candida albicans ATCC 90029 [11]: 0.125 µg/mL
MIC, Candida glabrata ATCC 36583 [12]: 0.25 µg/mL
